The source of these data is patent US20250154173A1 (Merck Sharp & Dohme LLC, priority 2023, published 2025).

This assay deals with T1, GST-RIPK1 (recombinant GST-RIPK1 kinase domain (residues 1-327)) (Homo sapiens, UniProt Q13546).
T1 construct: recombinant GST-RIPK1 kinase domain (residues 1-327) enzyme produced from baculovirus-transfected Sf21 cells; host or cells: baculovirus-transfected Sf21 insect cells
T1 sequence (Q13546 1-327): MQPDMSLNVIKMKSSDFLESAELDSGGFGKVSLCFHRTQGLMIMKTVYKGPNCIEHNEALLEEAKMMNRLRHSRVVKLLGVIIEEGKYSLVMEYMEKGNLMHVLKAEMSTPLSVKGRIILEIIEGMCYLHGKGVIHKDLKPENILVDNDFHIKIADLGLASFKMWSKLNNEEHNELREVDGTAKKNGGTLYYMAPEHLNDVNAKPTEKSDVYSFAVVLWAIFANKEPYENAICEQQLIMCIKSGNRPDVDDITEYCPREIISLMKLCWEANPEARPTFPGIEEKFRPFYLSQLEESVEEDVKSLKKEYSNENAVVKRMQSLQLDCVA
The assay is described as follows: RIPK1-ADP-Glo Enzymatic Assay. It is filed as biochemical. The settings on record: ten-point titration, top compound concentration of 100000 nM; 25 nM GST-RIPK1, 300 μM ATP, 3 μM dephosphorylated-MBP; 30 min pre-incubation, 150 min reaction. Summed up: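 GST-RIPK1 kinase domain (residues 1-327, Sf21-expressed), 25 nM, preincubated 30 min with compound, then reacted 150 min with 300 μM ATP and 3 μM dephosphorylated MBP in pH 7.3 Hepes buffer, 1% DMSO. ADP measured by ADP-Glo luminescence; EC50 from ten-point titration (top 100000 nM), four-parameter fit.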

`O=C1N2[C@@H](CC[C@H]2c2cnccn2)O[C@]12C[C@@H](Oc1ccc(F)cc1F)C2` [Example 7.2, (1s,3S,5′S,7a′R)-3-(2,4-difluorophenoxy)-5′-(pyrazin-2-yl)tetrahydro-3′H-spiro[cyclobutane-1,2′-pyrrolo[2,1-b]oxazol]-3′-one]: the EC50 (commonly the concentration at which the effect is half-maximal) was determined as 18 nM.
With `O=C1N2C(CC[C@H]2c2cnccn2)OC12CC(OCc1cncc(OCCF)c1)C2` (stereo partly drawn) [Example 18.77, (5′S)-3-{[5-(2-fluoroethoxy)pyridin-3-yl]methoxy}-5′-(pyrazin-2-yl)tetrahydro-3′H-spiro[cyclobutane-1,2′-pyrrolo[2,1-b][1,3]oxazol]-3′-one] the figure was 174 nM; with `N#CCc1cccc(COC2CC3(C2)OC2CC[C@@H](c4cnccn4)N2C3=O)c1` (stereo partly drawn) [Example 18.10, [3-({[(5′S)-3′-oxo-5′-(pyrazin-2-yl)tetrahydro-3′H-spiro[cyclobutane-1,2′-pyrrolo[2,1-b][1,3]oxazol]-3-yl]oxy}methyl)phenyl]acetonitrile], 12 nM; with `O=C1N2[C@@H](CC[C@H]2c2cc(F)cc(F)c2)O[C@]12C[C@@H](Oc1cc(F)ncn1)C2` [Example 9.10, (1s,3S,5′S,7a′R)-5′-(3,5-difluorophenyl)-3-((6-fluoropyrimidin-4-yl)oxy)tetrahydro-3′H-spiro[cyclobutane-1,2′-pyrrolo[2,1-b]oxazol]-3′-one], 35 nM.
With `COc1ccc(COC2CC3(C2)OC2CC[C@@H](c4cnccn4)N2C3=O)cc1CC#N` (stereo partly drawn) [Example 18.38, [2-methoxy-5-({[(5′S)-3′-oxo-5′-(pyrazin-2-yl)tetrahydro-3′H-spiro[cyclobutane-1,2′-pyrrolo[2,1-b][1,3]oxazol]-3-yl]oxy}methyl)phenyl]acetonitrile], the EC50 turned out to be 12 nM.
For `N#Cc1cc(O[C@H]2C[C@@]3(C2)O[C@@H]2CC[C@@H](c4ccc(F)cc4)N2C3=O)ncn1` [Example 9.1, 6-(((1r,3R,5′S,7a′R)-5′-(4-fluorophenyl)-3′-oxotetrahydro-3′H-spiro[cyclobutane-1,2′-pyrrolo[2,1-b]oxazol]-3-yl)oxy)pyrimidine-4-carbonitrile], the EC50 was determined as 14 nM.
Next, `COc1cncc(OC2CC3(C2)O[C@@H]2CC[C@@H](c4ccccc4)N2C3=O)c1` (stereo partly drawn) [Example 8.6, (5′S,7a′R)-3-[(5-methoxypyridin-3-yl)oxy]-5′-phenyltetrahydro-3′H-spiro[cyclobutane-1,2′-pyrrolo[2,1-b][1,3]oxazol]-3′-one]: 65 nM.
With `N#Cc1ccnc(O[C@H]2C[C@@]3(C2)O[C@@H]2CC[C@@H](c4ccc(F)cc4)N2C3=O)c1` [Example 9.28, 2-{[(1r,3R,5′S,7a′R)-5′-(4-fluorophenyl)-3′-oxotetrahydro-3′H-spiro[cyclobutane-1,2′-pyrrolo[2,1-b][1,3]oxazol]-3-yl]oxy}pyridine-4-carbonitrile], the EC50 was 16 nM.
Take `O=C1N2[C@@H](CC[C@H]2c2ccccc2)OC12CC(Oc1cncc(C(F)(F)F)c1)C2` (stereo partly drawn) [Example 8.8, (5′S,7a′R)-5′-phenyl-3-{[5-(trifluoromethyl)pyridin-3-yl]oxy}tetrahydro-3′H-spiro[cyclobutane-1,2′-pyrrolo[2,1-b][1,3]oxazol]-3′-one]: the EC50 is 155 nM.
For `N#CC1(c2ccc(COC3CC4(C3)OC3CC[C@@H](c5cnccn5)N3C4=O)c(Cl)c2)CC1` (stereo partly drawn) [Example 18.29, 1-[3-chloro-4-({[(5′S)-3′-oxo-5′-(pyrazin-2-yl)tetrahydro-3′H-spiro[cyclobutane-1,2′-pyrrolo[2,1-b][1,3]oxazol]-3-yl]oxy}methyl)phenyl]cyclopropane-1-carbonitrile], the EC50 worked out at 12 nM.
Consider `O=C1N2C(CC[C@H]2c2cnccn2)OC12CC(OCc1cc(-n3ccnc3)ccn1)C2` (stereo partly drawn) [Example 18.87], for which the EC50 worked out at 583 nM.
For `COc1ccc(COC2CC3(C2)OC2CC[C@@H](c4cnccn4)N2C3=O)cn1` (stereo partly drawn) [Example 18.70, (5′S)-3-[(6-methoxypyridin-3-yl)methoxy]-5′-(pyrazin-2-yl)tetrahydro-3′H-spiro[cyclobutane-1,2′-pyrrolo[2,1-b][1,3]oxazol]-3′-one], the EC50 amounted to 150 nM.
On to `O=C1N2[C@@H](CC[C@H]2c2cnccn2)OC12CC(OCc1cccnc1C(F)(F)F)C2` (stereo partly drawn) [Example 20.6, (5′S,7a′R)-5′-(pyrazin-2-yl)-3-{[2-(trifluoromethyl)pyridin-3-yl]methoxy}tetrahydro-3′H-spiro[cyclobutane-1,2′-pyrrolo[2,1-b][1,3]oxazol]-3′-one], for which the EC50 is 86 nM.
Regarding `O=C1N2C(CC[C@H]2c2cnccn2)OC12CC(OCc1cc3ncccc3s1)C2` (stereo partly drawn) [Example 18.91, (5′S)-5′-(pyrazin-2-yl)-3-[(thieno[3,2-b]pyridin-2-yl)methoxy]tetrahydro-3′H-spiro[cyclobutane-1,2′-pyrrolo[2,1-b][1,3]oxazol]-3′-one], the EC50 worked out at 22 nM.
With `O=C1N2[C@@H](CC[C@H]2c2ccccc2)OC12CC(Oc1ccnc(C(F)(F)F)c1)C2` (stereo partly drawn) [Example 8.4, (5′S,7a′R)-5′-phenyl-3-{[2-(trifluoromethyl)pyridin-4-yl]oxy}tetrahydro-3′H-spiro[cyclobutane-1,2′-pyrrolo[2,1-b][1,3]oxazol]-3′-one], the EC50 amounted to 86 nM.
Regarding `O=C1N2[C@@H](CC[C@H]2c2ccccc2)OC12CCC(OCc1ccccc1)CC2` (single isomer, unassigned) [Example 1.1, ((1r or s),4R,5′S,7a′R)-4-(benzyloxy)-5′-phenyltetrahydro-3′H-spiro[cyclohexane-1,2′-pyrrolo[2,1-b]oxazol]-3′-one], the EC50 came out at 256 nM.
In the case of `O=C1N2C(CC[C@H]2c2cnccn2)OC12CC(OCc1csc3ncccc13)C2` (stereo partly drawn) [Example 18.68, (5′S)-5′-(pyrazin-2-yl)-3-[(thieno[2,3-b]pyridin-3-yl)methoxy]tetrahydro-3′H-spiro[cyclobutane-1,2′-pyrrolo[2,1-b][1,3]oxazol]-3′-one], the EC50 worked out at 43 nM.
Consider `O=C1N2C(CC[C@H]2c2cnccn2)OC12CC(OCc1ccc(OC3CCOCC3)nc1)C2` (stereo partly drawn) [Example 18.57, (5′S)-3-({6-[(oxan-4-yl)oxy]pyridin-3-yl}methoxy)-5′-(pyrazin-2-yl)tetrahydro-3′H-spiro[cyclobutane-1,2′-pyrrolo[2,1-b][1,3]oxazol]-3′-one], for which the EC50 worked out at 109 nM.
As for `O=C1N2[C@H](O[C@]13C[C@@H](OCc1ccccc1)C3)[C@H](O)C[C@H]2c1cnccn1` [Example 21.2, (1s,3S,5′S,7′R,7a′R)-3-(benzyloxy)-7′-hydroxy-5′-(pyrazin-2-yl)tetrahydro-3′H-spiro[cyclobutane-1,2′-pyrrolo[2,1-b]oxazol]-3′-one], the EC50 came to 106 nM.
Turning to `O=C1N2C(CC[C@H]2c2cnccn2)OC12CC(OCc1cnn(-c3ccncc3)c1)C2` (stereo partly drawn) [Example 18.52, (5′S)-5′-(pyrazin-2-yl)-3-{[1-(pyridin-4-yl)-1H-pyrazol-4-yl]methoxy}tetrahydro-3′H-spiro[cyclobutane-1,2′-pyrrolo[2,1-b][1,3]oxazol]-3′-one], the EC50 is 96 nM.
Next, `N#CCc1ncc(COC2CC3(C2)OC2CC[C@@H](c4cnccn4)N2C3=O)cc1Cl` (stereo partly drawn) [Example 18.49, [3-chloro-5-({[(5′S)-3′-oxo-5′-(pyrazin-2-yl)tetrahydro-3′H-spiro[cyclobutane-1,2′-pyrrolo[2,1-b][1,3]oxazol]-3-yl]oxy}methyl)pyridin-2-yl]acetonitrile]: 59 nM; `CC(OC1CC2(C1)O[C@@H]1CC[C@@H](c3cc(F)cc(F)c3)N1C2=O)c1ncccc1F` (single isomer, unassigned) [Example 12.3, (1R or S,3R or S,5′S,7a′R)-5′-(3,5-difluorophenyl)-3-((R or S)-1-(3-fluoropyridin-2-yl)ethoxy)tetrahydro-3′H-spiro[cyclobutane-1,2′-pyrrolo[2,1-b]oxazol]-3′-one]: 239 nM; `O=C1N2C(CC[C@H]2c2cnccn2)OC12CC(OCc1cnc3c(c1)CCCC3)C2` (stereo partly drawn) [Example 18.90, (5′S)-5′-(pyrazin-2-yl)-3-[(5,6,7,8-tetrahydroquinolin-3-yl)methoxy]tetrahydro-3′H-spiro[cyclobutane-1,2′-pyrrolo[2,1-b][1,3]oxazol]-3′-one]: 780 nM.
With `N#Cc1ccc(OC2CC3(C2)O[C@@H]2CC[C@@H](c4ccccc4)N2C3=O)cc1` (stereo partly drawn) [Example 8.9] the figure was 72 nM; with “4-{[(1r,3R,5′S,7a′R)-3′-oxo-5′- phenyltetrahydro-3′H- spiro[cyclobutane-1,2′-pyrrolo[2,1- b][1,3]oxazol]-3-yl]oxy}pyrimidine- 2-carbonitrile [Example 9.18]”, 54 nM; with `O=C1N2[C@@H](CC[C@H]2c2cc(F)cc(F)c2)OC12CC(Oc1ccc(F)cn1)C2` (single isomer, unassigned) [Example 9.35], 64 nM.
With `O=C(O[C@H]1C[C@@]2(C1)O[C@@H]1CC[C@@H](c3cc(F)cc(F)c3)N1C2=O)c1ccccc1` [Example 14, (1r,3R,5′S,7a′R)-5′-(3,5-difluorophenyl)-3′-oxotetrahydro-3′H-spiro[cyclobutane-1,2′-pyrrolo[2,1-b]oxazol]-3-yl benzoate] the figure was 13 nM.
